How the values were obtained:
[1] = target: PI3Kα (p110/p85) kinase (wild type, "WT") (Homo sapiens, UniProt P42336); assay: PI3Kα (p110/p85) kinase ADP-Glo Assay; type: biochemical; conditions: 25 uM ATP
In short: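 Wild-type PI3Kα p110/p85 preincubated 30 min at RT with PI(4,5)P2:PS substrate ([…]) and compound ([…]) in HEPES pH7.5 buffer with MgCl2, DTT and BSA; reaction started with 25 µM ATP for 120 min at RT. ADP measured by ADP-Glo luminescence; IC50 from four-parameter logistic fit.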

[2] = target: PI3Kα (p110[H1047R]/p85) kinase (Homo sapiens, UniProt P42336, H1047R); assay: PI3Kα (p110[H1047R]/p85) kinase ADP-Glo Assay; type: biochemical; conditions: 25 uM ATP; for selectivity: WT/H1047R: ADP-Glo Assay IC50 ratio
Chain of PI3Kα (p110[H1047R]/p85) kinase (P42336 whole entry H1047R): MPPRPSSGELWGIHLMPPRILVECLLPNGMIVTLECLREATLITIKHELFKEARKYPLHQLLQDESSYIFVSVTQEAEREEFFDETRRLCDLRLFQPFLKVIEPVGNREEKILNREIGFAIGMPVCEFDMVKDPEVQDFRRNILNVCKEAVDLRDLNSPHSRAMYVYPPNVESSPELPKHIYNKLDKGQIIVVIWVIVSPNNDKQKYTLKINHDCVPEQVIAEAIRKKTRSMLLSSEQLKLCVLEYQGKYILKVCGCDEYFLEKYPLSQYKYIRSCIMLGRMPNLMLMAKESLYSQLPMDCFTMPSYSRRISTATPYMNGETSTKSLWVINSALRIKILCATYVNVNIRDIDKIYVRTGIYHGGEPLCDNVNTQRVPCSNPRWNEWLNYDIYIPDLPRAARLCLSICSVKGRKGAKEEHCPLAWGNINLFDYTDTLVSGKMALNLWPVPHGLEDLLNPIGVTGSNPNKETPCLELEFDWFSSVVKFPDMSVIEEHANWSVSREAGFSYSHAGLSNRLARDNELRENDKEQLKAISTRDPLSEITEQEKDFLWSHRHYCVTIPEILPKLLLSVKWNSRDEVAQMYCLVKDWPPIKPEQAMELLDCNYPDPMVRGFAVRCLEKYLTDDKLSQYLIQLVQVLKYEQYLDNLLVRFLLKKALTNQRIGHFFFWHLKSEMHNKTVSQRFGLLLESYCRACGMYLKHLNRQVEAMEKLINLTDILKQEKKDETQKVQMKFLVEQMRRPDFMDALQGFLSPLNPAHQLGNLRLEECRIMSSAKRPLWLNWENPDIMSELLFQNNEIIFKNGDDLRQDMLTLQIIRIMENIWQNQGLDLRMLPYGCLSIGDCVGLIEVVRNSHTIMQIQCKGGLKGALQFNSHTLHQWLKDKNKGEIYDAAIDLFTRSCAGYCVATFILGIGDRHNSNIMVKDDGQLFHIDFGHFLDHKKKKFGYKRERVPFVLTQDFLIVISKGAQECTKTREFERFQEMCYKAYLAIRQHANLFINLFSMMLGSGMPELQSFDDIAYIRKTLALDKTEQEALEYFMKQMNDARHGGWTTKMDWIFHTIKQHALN
Chain of PI3Kα (p110[H1047R]/p85) kinase (P27986 whole entry partner): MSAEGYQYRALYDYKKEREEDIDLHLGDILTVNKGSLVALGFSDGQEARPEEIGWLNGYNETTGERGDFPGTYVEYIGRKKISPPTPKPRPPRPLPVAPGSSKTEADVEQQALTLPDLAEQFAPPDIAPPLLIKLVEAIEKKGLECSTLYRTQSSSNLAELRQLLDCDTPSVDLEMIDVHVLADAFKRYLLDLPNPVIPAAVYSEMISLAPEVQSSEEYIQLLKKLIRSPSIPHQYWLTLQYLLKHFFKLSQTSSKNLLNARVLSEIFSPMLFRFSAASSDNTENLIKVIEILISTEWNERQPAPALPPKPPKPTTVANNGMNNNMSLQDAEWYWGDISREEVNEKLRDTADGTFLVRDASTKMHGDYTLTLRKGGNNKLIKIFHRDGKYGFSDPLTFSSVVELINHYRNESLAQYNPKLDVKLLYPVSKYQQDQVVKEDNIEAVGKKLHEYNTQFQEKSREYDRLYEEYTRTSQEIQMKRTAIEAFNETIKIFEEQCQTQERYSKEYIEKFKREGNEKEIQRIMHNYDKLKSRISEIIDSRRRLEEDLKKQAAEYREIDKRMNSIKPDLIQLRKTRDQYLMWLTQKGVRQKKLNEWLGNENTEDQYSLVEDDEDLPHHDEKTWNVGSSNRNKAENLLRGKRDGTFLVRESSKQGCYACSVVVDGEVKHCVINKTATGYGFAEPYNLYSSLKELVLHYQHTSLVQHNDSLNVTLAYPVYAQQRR
In short: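 PI3Kα H1047R/p85 pre-incubated 30 min at room temperature with PI(4,5)P2:PS substrate ([…]) and compound ([…]) in HEPES pH 7.5 buffer with MgCl2; ATP ([…]) then added for 120 min. ADP quantified by ADP-Glo luminescence; IC50 from four-parameter logistic fit.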

[3] = tested on: PI3Kα H1047R mutated cell line T-47D cells; assay: Cell Proliferation Assay (CellTiter-Glo), T-47D; type: cell-based; conditions: for IC50: Homo sapiens, T47D, 72 h, T-47D, 3 days treatment; for Selectivity: SK-BR-3/T-47D (cell proliferation): cell proliferation IC50 ratio
In short: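 T-47D cells seeded overnight at 3×10^3/well, then exposed 3 days to 9-point 1:3 dilutions, final […] to 1 nM in 0.1% DMSO. CellTiter-Glo luminescence; relative IC50 from percent inhibition versus medium-only and 0.1% DMSO controls, 4-parameter logistic fit.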

WT cell line SK-BR-3 = assay: Cell Proliferation Assay (CellTiter-Glo), SK-BR-3; type: cell-based; conditions: Homo sapiens, 72 h; SK-BR-3, 3 days treatment
Protocol: The SK-BR-3 (ATCC, HTB-30) cell line was obtained from the American Type Culture Collection. Cells were maintained in McCoy' 5A medium (Gibco, REF #16600108) supplemented with 10% Fetal Bovine Serum. Cultures were maintained in a humidified incubator at 37° C. under 5% CO2/95% air.
Cell Proliferation Assay. PI3Kα H1047R mutated cell line T-47D cells and WT cell line SK-BR-3 were seeded at a density of 3×10^3 cells per well in 96 well plate (Xinyou Biotechnology, 062096) in 95 μL of culture medium, overnight. Compounds dissolved in 10 mM stock solutions in DMSO were serially diluted 1:3 in DMSO to generate a 9-point dilution series and plated using an INTEGRA ASSIST Plus pipetting robot. A 20× intermediate compound dilution plate in RPMI1640 medium (200 M starting compound concentration in 2% DMSO) was then prepared. Five μL of intermediate serially diluted compounds were added to the cell plate to final concentrations ranging from […] to 1 nM in 0.1% DMSO. 0.1% DMSO alone was used to establish the maximum signal and medium without cells was for minimum signal. After 3 days treatment, equilibrated the plate and its contents at room temperature for approximately 30 minutes. Added 30 μL CellTiter-Glo® Reagent (Promega, REF #G7571) to each well. Then mixed contents for 5 min on plate shaker to induce cell lysis. Incubated at room temperature for 10 minutes to stabilize luminescent signal. The plates were read on PHERAstar FSX Microplate reader using standard luminescence settings.
Relative IC50 values were determined using luminescence units by calculating percent inhibition with respect to the in-plate “MIN” (medium only) and “MAX” (0.1% DMSO) controls. The data were analyzed using a 4-parameter nonlinear logistic equation (four-parameter logistic concentration-response curve): Y=bottom+[(top−bottom)/1+(X/IC50) slope] • where Y=% inhibition, X=concentration of inhibitor, bottom=minimum value of y attained by curve-fit, top=maximum value of y attained by curve-fit and slope=steepness of curve at the IC50.

Chain of PI3Kα (p110/p85) kinase (wild type, "WT") (P42336 whole entry): as the sequence (P42336 whole entry H1047R) above, with R1047H counted along it
Chain of PI3Kα (p110/p85) kinase (wild type, "WT") (P27986 whole entry partner): as the sequence (P27986 whole entry partner) above

| IC50 [1] | IC50 [2] | selectivity: WT/H1047R [2] | IC50 [3] | IC50 (WT cell line SK-BR-3) | SMILES | Selectivity: SK-BR-3/T-47D (cell proliferation) [3] |
| --- | --- | --- | --- | --- | --- | --- |
| 22400 nM | 161 nM | 139.3 | 1230 nM | > 10000 nM | Cc1cc(C(C)Nc2ccccc2C(=O)O)c2cc(-c3ccccc3C)n(C)c(=O)c2c1 (centres unmarked) [Example 2, 2-((1-(2,7-dimethyl-1-oxo-3-(o-tolyl)-1,2-dihydroisoquinolin-5-yl)ethyl)amino)benzoic acid] | >8.2 |
| 6140 nM | 92 nM | 66.8 | 205 nM | > 10000 nM | Cc1cc(C(C)Nc2ccccc2C(=O)O)c2cc(-c3ccc(F)cc3)n(CC#N)c(=O)c2c1 (centres unmarked) [Example 63, 2-((1-(2-(cyanomethyl)-3-(4-fluorophenyl)-7-methyl-1-oxo-1,2-dihydroisoquinolin-5-yl)ethyl)amino)benzoic acid] | >49 |
| 11800 nM | 516 nM | 22.8 | 674 nM | > 10000 nM | Cc1cc(C(C)Nc2ccccc2C(=O)O)c2cc(C3=CCN(c4ccccc4)C3)n(C)c(=O)c2c1 (centres unmarked) [Example 76, 2-((1-(2,7-dimethyl-1-oxo-3-(1-phenyl-2,5-dihydro-1H-pyrrol-3-yl)-1,2-dihydroisoquinolin-5-yl)ethyl)amino)benzoic acid] | >14.8 |
| 35400 nM | 1500 nM | 23.5 | 890 nM | > 10000 nM | Cc1cc(C(C)Nc2ccccc2C(=O)O)c2cc(-c3cnn(CC45CC6C[C@H](C4)C[C@H](C6)C5)c3C)n(C)c(=O)c2c1 (stereo partly drawn) [Example 87, 2-((1-(3-(1-(((3S,5S)-adamantan-1-yl)methyl)-5-methyl-1H-pyrazol-4-yl)-2,7-dimethyl-1-oxo-1,2-dihydroisoquinolin-5-yl)ethyl)amino)benzoic acid] | >11.2 |
| 23800 nM | 229 nM | 104.0 | > 10000 nM | > 10000 nM | CC(Nc1ccccc1C(=O)O)c1cccn2c(=O)cc(-c3ccccc3)cc12 (centres unmarked) [Example 25, 2-((1-(4-oxo-2-phenyl-4H-quinolizin-9-yl)ethyl)amino)benzoic acid] |  |
| 10400 nM | 247 nM | 42.1 | 94.5 nM | > 10000 nM | Cc1cc(C(C)Nc2ccccc2C(=O)O)c2cc(-c3ccc(C(C)(C)O)cc3)n(C)c(=O)c2c1 (centres unmarked) [Example 51, 2-((1-(3-(4-(2-hydroxypropan-2-yl)phenyl)-2,7-dimethyl-1-oxo-1,2-dihydroisoquinolin-5-yl)ethyl)amino)benzoic acid] | >106 |
| 3720 nM | 156 nM | 23.9 | 232 nM | > 10000 nM | COc1ccc(-c2cc3c(C(C)Nc4ccccc4C(=O)O)cc(C)cc3c(=O)n2C)cc1 (centres unmarked) [Example 14, 2-((1-(3-(4-methoxyphenyl)-2,7-dimethyl-1-oxo-1,2-dihydroisoquinolin-5-yl)ethyl)amino)benzoic acid] | >43 |
| 14300 nM | 525 nM | 27.3 | > 10000 nM | > 10000 nM | Cc1cc(C(C)Nc2cc3ccsc3cc2C(=O)O)c2cc(-c3ccccc3)n(C)c(=O)c2c1 (centres unmarked) [Example 47, 5-((1-(2,7-dimethyl-1-oxo-3-phenyl-1,2-dihydroisoquinolin-5-yl)ethyl)amino)benzo[b]thiophene-6-carboxylic acid] |  |
| 4180 nM | 107 nM | 39.0 | 175 nM | > 10000 nM | Cc1cc([C@@H](C)Nc2ccccc2C(=O)O)c2cc(-c3ccc(F)cc3)n(C)c(=O)c2c1 [Example 34, (R)-2-((1-(3-(4-fluorophenyl)-2,7-dimethyl-1-oxo-1,2-dihydroisoquinolin-5-yl)ethyl)amino)benzoic acid] | >57 |
| > 100000 nM | 387 nM | >258 | > 10000 nM | > 10000 nM | Cc1cc(C(C)Nc2ccccc2C(=O)O)c2cc(C#Cc3cnn(-c4ccccc4)c3)n(C)c(=O)c2c1 (centres unmarked) [Example 94, 2-((1-(2,7-dimethyl-1-oxo-3-((1-phenyl-1H-pyrazol-4-yl)ethynyl)-1,2-dihydroisoquinolin-5-yl)ethyl)amino)benzoic acid] |  |
| 5160 nM | 829 nM | 6.2 | > 10000 nM | > 10000 nM | Cc1cc(C(C)Nc2c(C(=O)O)sc3ccccc23)c2cc(-c3ccccc3)n(C)c(=O)c2c1 (centres unmarked) [Example 48, 3-((1-(2,7-dimethyl-1-oxo-3-phenyl-1,2-dihydroisoquinolin-5-yl)ethyl)amino)benzo[b]thiophene-2-carboxylic acid] |  |
| 21500 nM | 1110 nM | 19.3 | 908 nM | > 10000 nM | Cc1cc(C(C)Nc2ccccc2C(=O)O)c2cc(-c3cnc(C(C)(C)O)nc3)n(C)c(=O)c2c1 (centres unmarked) [Example 66, 2-((1-(3-(2-(2-hydroxypropan-2-yl)pyrimidin-5-yl)-2,7-dimethyl-1-oxo-1,2-dihydroisoquinolin-5-yl)ethyl)amino)benzoic acid] | >11 |
| 10600 nM | 922 nM | 11.5 | 496 nM | > 10000 nM | Cc1cc(C(C)Nc2ccccc2C(=O)O)c2cc(-c3ccc4nn(C)cc4n3)n(C)c(=O)c2c1 (centres unmarked) [Example 39, 2-((1-(2,7-dimethyl-3-(2-methyl-2H-pyrazolo[4,3-b]pyridin-5-yl)-1-oxo-1,2-dihydroisoquinolin-5-yl)ethyl)amino)benzoic acid] | >20 |
| 19500 nM | 790 nM | 24.6 | 340 nM | > 10000 nM | Cc1cc(C(C)Nc2ccccc2C(=O)O)c2cc(-c3cncnc3)n(C)c(=O)c2c1 (centres unmarked) [Example 61, 2-((1-(2,7-dimethyl-1-oxo-3-(pyrimidin-5-yl)-1,2-dihydroisoquinolin-5-yl)ethyl)amino)benzoic acid] | >29 |
| 2360 nM | 235 nM | 10.1 | 620 nM | > 10000 nM | Cc1cc(C(C)Nc2ccccc2C(=O)O)c2cc(C#Cc3ccccc3)n(C)c(=O)c2c1 (centres unmarked) [Example 43, 2-((1-(2,7-dimethyl-1-oxo-3-(phenylethynyl)-1,2-dihydroisoquinolin-5-yl)ethyl)amino)benzoic acid] | >16 |
| 2030 nM | 223 nM | 9.1 | 147 nM | > 10000 nM | Cc1cc(C(C)Nc2ccccc2C(=O)O)c2cc(-c3ccc(-c4cnn(C)c4)cc3)n(C)c(=O)c2c1 (centres unmarked) [Example 23, 2-((1-(2,7-dimethyl-3-(4-(1-methyl-1H-pyrazol-4-yl)phenyl)-1-oxo-1,2-dihydroisoquinolin-5-yl)ethyl)amino)benzoic acid] | >68 |
| 13100 nM | 729 nM | 18.0 | 86.9 nM | > 10000 nM | COC1(c2ccc(-c3cc4c(C(C)Nc5ccccc5C(=O)O)cc(C)cc4c(=O)n3C)cc2)CCOCC1 (centres unmarked) [Example 74, 2-((1-(3-(4-(4-methoxytetrahydro-2H-pyran-4-yl)phenyl)-2,7-dimethyl-1-oxo-1,2-dihydroisoquinolin-5-yl)ethyl)amino)benzoic acid] | >115 |

— patent US20260125346A1, “Isoquinolinone Derivatives and 4H-Quinolizinone Derivatives and Pharmaceutical Compositions Thereof for the Treatment of Disease” (BeOne Medicines I GmbH, priority 2023, published 2026)
